{
  "source": "patent US12441726B2",
  "about": "“Compounds and uses thereof” (Foghorn Therapeutics Inc., priority 2020, dated 2025)",
  "experiment": "Body weight / tolerability in tumor-bearing mice",
  "type": "in vivo",
  "settings": "all treatments, once daily oral gavage, 3 weeks; FIG. 8C",
  "description": "Procedure: Nude mice (Envigo) were engrafted subcutaneously in the axillary region with 5×10^6 92-1 uveal melanoma cells in 50% Matrigel. Tumors were grown to a mean of ˜200 mm^3, at which point mice were grouped and dosing was initiated. […] Tumor volumes and body weights were measured over the course of 3 weeks, and doses were adjusted by body weight to achieve the proper dose in terms of mg/kg. At this time, animals were sacrificed, and tumors were dissected and imaged.",
  "data": [
    {"compound": "C[C@@H]1CN(c2cccc(-c3csc(NC(=O)CNC(=O)c4ccn(C(C)(C)C)c4)n3)n2)C[C@H](C)O1", "note": "[Compound C, 1-(tert-butyl)-N-(2-((4-(6-(cis-2,6-dimethylmorpholino)pyridin-2-yl)thiazol-2-yl)amino)-2-oxoethyl)-1H-pyrrole-3-carboxamide]", "values": [
      {"measurement": "tolerability / body weight change", "result": "well tolerated with no body weight loss observed"}
    ]}
  ]
}
